Source: PubChem BioAssay AID1963977 (Molecular Pharmacology Branch, DTP, NCI, 2024)

Tested on: 624824-186-R-J3-PDC multicell spheroids, viability
Experiment: Anticancer human tumor 624824-186-R-J3-PDC patient-derived colon adenocarcinoma cell line growth inhibition [PI3K]
Settings: for IC50: curve of first compound; for viability, T/C: stronger effect = lower value
In short: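 Multi-cell spheroids combine tumor cells with HUVEC and human MSCs, treated with targeted agents alone or with inavolisib, alpelisib, duvelisib or copanlisib. Concentrations fall in half-log steps from at or near clinical Cmax, or from 10 microM where Cmax is unknown; viability read-out.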

[1] = second compound 0.00316 µM, first compound 0.0316 µM
[2] = second compound 0.00316 µM, first compound 0.1 µM
[3] = second compound 0.01 µM, first compound 0.0316 µM
[4] = second compound 0.01 µM, first compound 0.1 µM
[5] = second compound 0.0316 µM, first compound 0.0316 µM
[6] = second compound 0.0316 µM, first compound 0.1 µM
[7] = second compound 0.1 µM, first compound 0.0316 µM
[8] = second compound 0.1 µM, first compound 0.1 µM
[9] = second compound 0.316 µM, first compound 0.0316 µM
[10] = second compound 0.316 µM, first compound 0.1 µM
[11] = second compound 1 µM, first compound 0.0316 µM
[12] = second compound 1 µM, first compound 0.1 µM
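Further: spheroids exposed to agents for seven days before luminescence read.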
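Wherever viability, T/C is given: luminescent signal used as a stand-in for spheroid viability; percent viability relative to DMSO vehicle control wells taken as 100%.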

CC(C)n1nc(-c2ccc3oc(N)nc3c2)c2c(N)ncnc21 + COc1c(OCCCN2CCOCC2)ccc2c3n(c(=NC(=O)c4cnc(N)nc4)nc12)CCN3
IC50 (second compound 0.00316 µM): > 100 nM | IC50 (second compound 0.01 µM): > 100 nM | IC50 (second compound 0.0316 µM): 60.2 nM | IC50 (second compound 0.1 µM): 29.2 nM | IC50 (second compound 0.316 µM): 1.66 nM | IC50 (second compound 1 µM): < 0.316 nM | viability, T/C (second compound 0.00316 µM, first compound 0.000316 µM): 108% | viability, T/C (second compound 0.00316 µM, first compound 0.001 µM): 106% | viability, T/C (second compound 0.00316 µM, first compound 0.00316 µM): 106% | viability, T/C (second compound 0.00316 µM, first compound 0.01 µM): 99.2% | viability, T/C [1]: 89.1% | viability, T/C [2]: 52.6% | viability, T/C (second compound 0.01 µM, first compound 0.000316 µM): 101% | viability, T/C (second compound 0.01 µM, first compound 0.001 µM): 102% | viability, T/C (second compound 0.01 µM, first compound 0.00316 µM): 109% | viability, T/C (second compound 0.01 µM, first compound 0.01 µM): 95.9% | viability, T/C [3]: 82.2% | viability, T/C [4]: 52.2% | viability, T/C (second compound 0.0316 µM, first compound 0.000316 µM): 97.8% | viability, T/C (second compound 0.0316 µM, first compound 0.001 µM): 96.7% | viability, T/C (second compound 0.0316 µM, first compound 0.00316 µM): 91.9% | viability, T/C (second compound 0.0316 µM, first compound 0.01 µM): 92.3% | viability, T/C [5]: 63.6% | viability, T/C [6]: 39.2% | viability, T/C (second compound 0.1 µM, first compound 0.000316 µM): 83.2% | viability, T/C (second compound 0.1 µM, first compound 0.001 µM): 80.2% | viability, T/C (second compound 0.1 µM, first compound 0.00316 µM): 80.2% | viability, T/C (second compound 0.1 µM, first compound 0.01 µM): 72.1% | viability, T/C [7]: 48.3% | viability, T/C [8]: 27.5% | viability, T/C (second compound 0.316 µM, first compound 0.000316 µM): 53.5% | viability, T/C (second compound 0.316 µM, first compound 0.001 µM): 48.6% | viability, T/C (second compound 0.316 µM, first compound 0.00316 µM): 51.1% | viability, T/C (second compound 0.316 µM, first compound 0.01 µM): 39.2% | viability, T/C [9]: 31.5% | viability, T/C [10]: 22.2% | viability, T/C (second compound 1 µM, first compound 0.000316 µM): 28.5% | viability, T/C (second compound 1 µM, first compound 0.001 µM): 28.8% | viability, T/C (second compound 1 µM, first compound 0.00316 µM): 31.4% | viability, T/C (second compound 1 µM, first compound 0.01 µM): 23.9% | viability, T/C [11]: 24.9% | viability, T/C [12]: 18.6%

C#Cc1c(F)ccc2cc(O)cc(-c3ncc4c(N5CC6CCC(C5)N6)nc(OCC56CCCN5CC(F)C6)nc4c3F)c12 (centres undefined) + CC(Nc1ccc2c(c1)OCCn1cc(N3C(=O)OCC3C(F)F)nc1-2)C(N)=O
IC50 (second compound 0.00316 µM): > 10000 nM | IC50 (second compound 0.01 µM): > 10000 nM | IC50 (second compound 0.0316 µM): > 10000 nM | IC50 (second compound 0.1 µM): > 10000 nM | IC50 (second compound 0.316 µM): > 10000 nM | IC50 (second compound 1 µM): > 10000 nM | viability, T/C [1]: 106% | viability, T/C [2]: 108% | viability, T/C (second compound 0.00316 µM, first compound 0.316 µM): 100% | viability, T/C (second compound 0.00316 µM, first compound 1 µM): 108% | viability, T/C (second compound 0.00316 µM, first compound 3.16 µM): 104% | viability, T/C (second compound 0.00316 µM, first compound 10 µM): 122% | viability, T/C [3]: 109% | viability, T/C [4]: 89.9% | viability, T/C (second compound 0.01 µM, first compound 0.316 µM): 97.1% | viability, T/C (second compound 0.01 µM, first compound 1 µM): 108% | viability, T/C (second compound 0.01 µM, first compound 3.16 µM): 103% | viability, T/C (second compound 0.01 µM, first compound 10 µM): 101% | viability, T/C [5]: 109% | viability, T/C [6]: 105% | viability, T/C (second compound 0.0316 µM, first compound 0.316 µM): 107% | viability, T/C (second compound 0.0316 µM, first compound 1 µM): 103% | viability, T/C (second compound 0.0316 µM, first compound 3.16 µM): 107% | viability, T/C (second compound 0.0316 µM, first compound 10 µM): 106% | viability, T/C [7]: 105% | viability, T/C [8]: 101% | viability, T/C (second compound 0.1 µM, first compound 0.316 µM): 108% | viability, T/C (second compound 0.1 µM, first compound 1 µM): 109% | viability, T/C (second compound 0.1 µM, first compound 3.16 µM): 111% | viability, T/C (second compound 0.1 µM, first compound 10 µM): 103% | viability, T/C [9]: 95.9% | viability, T/C [10]: 99.7% | viability, T/C (second compound 0.316 µM, first compound 0.316 µM): 103% | viability, T/C (second compound 0.316 µM, first compound 1 µM): 98% | viability, T/C (second compound 0.316 µM, first compound 3.16 µM): 104% | viability, T/C (second compound 0.316 µM, first compound 10 µM): 108% | viability, T/C [11]: 93.9% | viability, T/C [12]: 83.2% | viability, T/C (second compound 1 µM, first compound 0.316 µM): 94.3% | viability, T/C (second compound 1 µM, first compound 1 µM): 88.3% | viability, T/C (second compound 1 µM, first compound 3.16 µM): 88.8% | viability, T/C (second compound 1 µM, first compound 10 µM): 99.2%
